A short description of data set [1]: In vitro Colonic Material Stability Assay. In kind it is in vitro ADME. As to conditions: colonic material slurry in YCFAC media, anaerobic, 1 or 10 μM. As to the method:
Assay 3. In vitro Colonic Material Stability Assay. This assay was used to assess the stability of a conjugate in a large intestine. All experiments were performed in an anaerobic chamber containing 90% nitrogen, 5% hydrogen and 5% carbon dioxide. Colonic material was resuspended as a slurry (15% w/v final concentration) in pre-reduced, anaerobically sterilized dilution blanks (Anaerobe Systems AS-908). The colonic material was then inoculated into 96 well plates containing YCFAC media (Anaerobe Systems AS-680) or other suitable media (6.7 μL slurry into 1 mL total media). Compounds or groups of compounds were added to each individual well to reach a final analyte concentration of 1 or 10 μM, and the material was mixed by pipetting. Sample was removed after set timepoints (0, 120, 240, 480, 1440, 2880 minutes after initiation of the assay), quenched with acetonitrile containing internal standard, and analyzed by LC/MS.

Data set [2] in a line: Stability of conjugates in Simulated Gastric Fluid (SGF). As to conditions: SGF pH 1.6 with pepsin, 37° C., 1 μM compound. In kind it is in vitro ADME. Here is the method:
Assay 1. Stability of conjugates in Simulated Gastric Fluid (SGF). This assay was used to assess the stability of a conjugate in a stomach.
Medium was prepared by dissolving 2 g of sodium chloride in 0.6 L in ultrapure water (MilliQ®, Millipore Sigma, Darmstadt, Germany). The pH was adjusted to 1.6 with 1N hydrochloric acid, and the volume was then adjusted to 1 L with purified water.
60 mg FaSSIF powder (Biorelevant™, London, UK) were dissolved in 500 mL buffer (above). Pepsin was added (0.1 mg/mL) (Millipore Sigma, Darmstadt, Germany), and the solution was stirred. The resulting SGF media were used fresh for each experiment.
Test compounds were dissolved in DMSO stock to 1 mM. An aliquot of the DMSO stock solution was removed and diluted in the SGF Media in 15 mL falcon tubes to generate a total compound concentration of 1 μM. A 1 mL aliquot was immediately removed and diluted once with 1 volume of acetonitrile for TO timepoint. The mixture was sealed and mixed at 37° C. in an incubator. Aliquots (1 mL) were removed at regular intervals and immediately quenched by the addition of 1 volume of acetonitrile. The resulting samples were analyzed by LC/MS to determine degradation rates in SGF.

Data set [3] is described as follows: Stability of conjugates in Simulated Intestinal Fluid (SIF). The class given is in vitro ADME. The note with it: SIF pH 6.7 with pancreatin, 37° C., 1 μM compound. Here is the method: Assay 2. Stability of conjugates in Simulated Intestinal Fluid (SIF). This assay was used to assess the stability of a conjugate in a small intestine.
Phosphate buffer was prepared by dissolving 0.42 g of sodium hydroxide pellets and 3.95 g of monobasic sodium phosphate monohydrate and 6.19 g of sodium chloride in ultrapure water (MilliQ®, Millipore Sigma, Darmstadt, Germany). The pH was adjusted to 6.7 using aq. HCl and aq. NaOH, as necessary, and the solution was diluted with ultrapure water to produce 1 L of the pH 6.7 buffer.
112 mg FaSSIF powder (Biorelevant™, London, UK) was dissolved in 50 mL of the pH 6.7 buffer. 2 to 3 mL of the resulting solution were then added to 500 mg pancreatin (Millipore Sigma, Darmstadt, Germany). The resulting mixture was agitated by finger tapping the vessel containing the mixture until milky suspension formed. At this time, the remainder of the 50 mL FaSSiF/pH 6.7 buffer solution was added. The resulting suspension was flipped upside down 10 times to produce SIF, which was used fresh.
Test compounds were dissolved in DMSO stock to 1 mM. An aliquot of the DMSO stock solution was removed and diluted in the SIF media in 15 mL falcon tubes to produce a mixture with a tested compound concentration of 1 μM. A 1 mL aliquot was immediately removed and diluted once with 1 volume of acetonitrile for TO timepoint. The mixture was sealed and agitated at 37° C. in an incubator. Aliquots (1 mL) were removed at regular intervals and immediately quenched by the addition of 1 volume of acetonitrile. The resulting samples were analyzed by LC/MS to determine degradation rates

Data set [4] in a line: Gastrointestinal (GI) Exposure to Propionate (Study 1). In kind it is in vivo, CD-1 mice. As to conditions: mouse; for Propionate-d3 AUClast / Propionate-d3 Tmax: single oral dose: Propionate-d3 62 mg/kg, Compound 3-d12 110 mg/kg, Compound 6-d9 91 mg/kg. As to the method: In order to measure propionate concentrations along the GI track, CD-1 mice were orally administered a single dose of deuterated sodium propionate, Compound 3 comprising deuterated propionate, or Compound 6 comprising deuterated propionate (Propionate-d3, Compound 3-d12, and Compound 6-d9, respectively; suspension, 1% (w/v) methyl cellulose in deionized water). The amounts of compound dosed were normalized to provide approximately equimolar amounts of […] (Propionate-d3 at 62 mg/kg, Compound 3-d12 at 110 mg/kg, and Compound 6-d9 at 91 mg/kg). […] Blood samples were collected in K2EDTA tubes and stored on wet ice no more than 30 min and then further processed to plasma. GI samples were placed into separate labeled, pre-weighted collection tubes and frozen before analysis. Brain samples were homogenized prior to analysis. Samples were subsequently worked up and analyzed by LC-MS/MS for deuterated propionate concentration. Propionate concentrations versus time for different tissues are depicted in FIGS. 4A-4H and 5A-5C.

SMILES strings stand for the structures. Where a name gives a salt, the structure may show the parent alone.

As for `CCC(=O)OC[C@H]1O[C@H](OC(=O)/C=C/C(=O)OC)[C@H](OC(=O)CC)[C@@H](OC(=O)CC)[C@@H]1OC(=O)CC` [Compound 4, Methyl ((2R,3R,4S,5R,6R)-3,4,5-tris(propionyloxy)-6-((propionyloxy)methyl)tetrahydro-2H-pyran-2-yl) fumarate], the “Assay 3 (% Remaining at 24 h)” value in data set [1] was “B (B: 25-75% of the tested compound remaining)”. For the same compound, the “Assay 1 (SGF) (% Remaining @ 1 hour)” value in data set [2] is “B (B: 25-75% of the tested compound remaining)”. In addition, the “Assay 2 (SIF) (% @ Remaining 4 hours)” value in data set [3] is on record as “C (C: >75% of the tested compound remaining)”.
Regarding `CCC(=O)O[C@@H]1[C@@H](OC(=O)CC)[C@@H](OC(=O)/C=C/C(=O)OC)OC[C@H]1OC(=O)CC` [Compound 16, Methyl ((2R,3R,4S,5R)-3,4,5-tris(propionyloxy)tetrahydro-2H-pyran-2-yl) fumarate], the “Assay 3 (% Remaining at 24 h)” value in data set [1] is recorded as “C (C: >75% of the tested compound remaining)”.
For the compound `CCC(=O)OC[C@H]1O[C@@H](OC(=O)/C=C/C(=O)OC)[C@H](N)[C@@H](OC(=O)CC)[C@@H]1OC(=O)CC.Cl` [Compound 27, (2S,3R,4R,5S,6R)-2-(((E)-4-methoxy-4-oxobut-2-enoyl)oxy)-4,5-bis(propionyloxy)-6-((propionyloxy)methyl)tetrahydro-2H-pyran-3-aminium Chloride], the “Assay 3 (% Remaining at 24 h)” value in data set [1] was “B (B: 25-75% of the tested compound remaining)”. Further, the “Assay 2 (SIF) (% @ Remaining 4 hours)” value in data set [3] is “C (C: >75% of the tested compound remaining)”.
Turning to `CCCC(=O)OC[C@H]1O[C@H](OC(=O)/C=C/C(=O)OC)[C@H](N)[C@@H](OC(=O)CCC)[C@@H]1OC(=O)CCC.Cl` [Compound 28, (2R,3R,4R,5S,6R)-4,5-bis(butyryloxy)-6-((butyryloxy)methyl)-2-(((E)-4-methoxy-4-oxobut-2-enoyl)oxy)tetrahydro-2H-pyran-3-aminium Chloride], the “Assay 3 (% Remaining at 24 h)” value in data set [1] is on record as “B (B: 25-75% of the tested compound remaining)”. Also, the “Assay 2 (SIF) (% @ Remaining 4 hours)” value in data set [3] is recorded as “B (B: 25-75% of the tested compound remaining)”.
Turning to `CCC(=O)OC[C@H]1O[C@H](OC(=O)CC)[C@H](OC(=O)CC)[C@@H](OC(=O)CC)[C@H]1OC(=O)/C=C/C(=O)OC` [Compound 52, 1-methyl (2R,3S,4S,5R,6R)-4,5,6-tris(propanoyloxy)-2-[(propanoyloxy)methyl]oxan-3-yl (2E)-but-2-enedioate], in data set [2], the “Assay 1 (SGF) (% Remaining @ 1 hour)” value was “C (C: >75% of the tested compound remaining)”. In data set [3], the “Assay 2 (SIF) (% @ Remaining 4 hours)” value is reported as “A (A: <25% of the tested compound remaining)”.
For `COC(=O)/C=C/C(=O)Oc1cc(OC(=O)/C=C/C(=O)OC)c2c(c1)O[C@H](c1ccc(OC(=O)/C=C/C(=O)OC)c(OC(=O)/C=C/C(=O)OC)c1)[C@H](OC(=O)/C=C/C(=O)OC)C2` [Compound 53, O4-[2-[(E)-4-methoxy-4-oxo-but-2-enoyl]oxy-4-[(2R,3R)-3,5,7-tris[[(E)-4-methoxy-4-oxo-but-2-enoyl]oxy]chroman-2-yl]phenyl] O1-methyl (E)-but-2-enedioate] the same measures were “C (C: >75% of the tested compound remaining)” and “A (A: <25% of the tested compound remaining)”.
On the same counts, the results for `COC(=O)/C=C/C(=O)Oc1ccc(-c2oc3cc(OC(=O)/C=C/C(=O)OC)cc(OC(=O)/C=C/C(=O)OC)c3c(=O)c2OC(=O)/C=C/C(=O)OC)cc1` [Compound 54, 01-methyl O4-[4-[3,5,7-tris[[(E)-4-methoxy-4-oxo-but-2-enoyl]oxy]-4-oxo-chromen-2-yl]phenyl] (E)-but-2-enedioate] are “C (C: >75% of the tested compound remaining)” and “A (A: <25% of the tested compound remaining)”.
On the same counts, the results for `COC(=O)/C=C/C(=O)Oc1cc(OC(=O)/C=C/C(=O)OC)c2c(=O)c(OC(=O)/C=C/C(=O)OC)c(-c3ccc(OC(=O)/C=C/C(=O)OC)c(OC(=O)/C=C/C(=O)OC)c3)oc2c1` [Compound 55, O4-[2-[(E)-4-methoxy-4-oxo-but-2-enoyl]oxy-4-[3,5,7-tris[[(E)-4-methoxy-4-oxo-but-2-enoyl]oxy]-4-oxo-chromen-2-yl]phenyl] O1-methyl (E)-but-2-enedioate] are “C (C: >75% of the tested compound remaining)” and “A (A: <25% of the tested compound remaining)”.
`COC(=O)/C=C/C(=O)Oc1ccc(-c2oc3cc(OC(=O)/C=C/C(=O)OC)cc(OC(=O)/C=C/C(=O)OC)c3c(=O)c2O)cc1` [Compound 56, O4-[4-[3-hydroxy-5,7-bis[[(E)-4-methoxy-4-oxo-but-2-enoyl]oxy]-4-oxo-chromen-2-yl]phenyl] O1-methyl (E)-but-2-enedioate]: in data set [2], the “Assay 1 (SGF) (% Remaining @ 1 hour)” value is on record as “C (C: >75% of the tested compound remaining)”. Besides, the “Assay 2 (SIF) (% @ Remaining 4 hours)” value in data set [3] is “A (A: <25% of the tested compound remaining)”.
For `[2H]C([2H])([2H])CC(=O)[O-].[Na+]` [Propionate-d3, sodium propionate-d3, reference compound], the “Propionate-d3 AUClast” value in data set [4] (Brain) was “below quantitative”; in data set [4] (Cecum), 76 nmol·h/g; in data set [4] (Distal Colon) it was 31 nmol·h/g; in data set [4] (Distal Intestine), 6.6 nmol·h/g; in data set [4] (Proximal Colon), 46 nmol·h/g; in data set [4] (Proximal Intestine) it was 13 nmol·h/g. Moreover, the “Propionate-d3 AUClast” value in data set [4] (Stomach) is 7020 nmol·h/g. For the same compound, the “Propionate-d3 Tmax” value came to 15 min in data set [4] (Brain); 15 min in data set [4] (Cecum); 15 min in data set [4] (Distal Colon); 30 min in data set [4] (Distal Intestine); 15 min in data set [4] (Proximal Colon); 15 min in data set [4] (Proximal Intestine). Further, the “Propionate-d3 Tmax” value in data set [4] (Stomach) is 15 min. Also, the “region where the highest concentrations (Cmax) of propionate-d3 were observed” value in data set [4] (single oral dose, GI tissues) is listed as “stomach”.

(Values after US20210299079A1, “MONOMETHYL FUMARATE-CARRIER CONJUGATES AND METHODS OF THEIR USE” (Flagship Pioneering Innovations V, Inc., priority 2018, published 2021).)
